Broadly, the IC50 is the midpoint of a concentration-inhibition curve.

17 compounds from patent US11667651B2, “Aminopyridine derivatives as phosphatidylinositol phosphate kinase inhibitors” (HiberCell, Inc., priority 2017, dated 2023) can be followed below.

Bounds are passed on as bounds.

Type in all cases: biochemical
For one assay, the target named is T1, PIP4K2B (Homo sapiens, UniProt P78356).
T1 construct: made in house; host or cells: E. coli
T1 sequence (P78356 1-416): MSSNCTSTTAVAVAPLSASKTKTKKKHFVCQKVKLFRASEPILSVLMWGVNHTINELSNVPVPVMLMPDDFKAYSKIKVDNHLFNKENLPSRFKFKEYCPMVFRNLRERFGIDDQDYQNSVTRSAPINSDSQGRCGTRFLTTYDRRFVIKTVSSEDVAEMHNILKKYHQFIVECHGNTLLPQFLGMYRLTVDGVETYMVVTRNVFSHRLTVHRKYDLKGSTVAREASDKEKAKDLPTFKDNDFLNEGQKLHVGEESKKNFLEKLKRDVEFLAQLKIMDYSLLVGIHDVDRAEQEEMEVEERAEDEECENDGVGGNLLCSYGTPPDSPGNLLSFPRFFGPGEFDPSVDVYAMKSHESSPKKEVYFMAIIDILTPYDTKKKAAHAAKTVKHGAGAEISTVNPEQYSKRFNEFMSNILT
Put plainly: Trans-FI P kinase assay PIP4K2B (Table 4). Conditions: compounds listed under IC50 bins; read-out: Trans-FI P kinase assays: PIP4K2B IC50. The procedure, abridged:
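Transcreener FI detection (Ex 584/Em 623) of GDP, converted via calibration curve, gives IC50 from residual activity versus log concentration (highest 4.8 μM). Reaction: 80 μM PI5P plus DOPE carrier, 100 μM GTP, 5 nM GST-tagged enzyme, pH 7.3 HEPES with MgCl2 and 5% DMSO, 2 h after 1 h enzyme-compound preincubation at 27° C.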

The target of assay [1] is T2, PIP4K2A (Homo sapiens, UniProt P48426).
T2 sequence (P48426 1-406): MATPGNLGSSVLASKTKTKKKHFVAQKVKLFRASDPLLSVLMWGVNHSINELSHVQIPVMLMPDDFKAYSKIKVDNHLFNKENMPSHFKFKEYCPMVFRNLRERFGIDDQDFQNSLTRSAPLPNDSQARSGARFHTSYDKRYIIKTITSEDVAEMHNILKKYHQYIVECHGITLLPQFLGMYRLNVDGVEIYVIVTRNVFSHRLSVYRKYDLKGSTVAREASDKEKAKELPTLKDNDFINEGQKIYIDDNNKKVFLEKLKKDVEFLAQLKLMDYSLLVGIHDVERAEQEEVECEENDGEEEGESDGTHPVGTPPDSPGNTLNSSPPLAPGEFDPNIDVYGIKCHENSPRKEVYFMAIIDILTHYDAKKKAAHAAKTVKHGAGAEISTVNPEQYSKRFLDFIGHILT
Put plainly: ADP-glo kinase assay PIP4K 2A (Table 3). Further details: made in house; host or cells: E. coli. Conditions: compounds listed under IC50 bins. The procedure, abridged:
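Full-length PIP4K2A (4 nM in the mix) with 100 μM PI(5)P diC8 pre-incubated 15 min with compound in MOPS pH 7.2, 25 mM MgCl2; ATP added (60 μM solution), 1 h at RT. ADP formed read by ADP-Glo luminescence; 10-point curves versus DMSO controls fitted to IC50.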

For assay [2], the target named is T2, PIP4K2A. Put plainly: Kinase Assay PIP4K2 A (Table 2). Further details: 4 nM PIP4K2A (full length protein, SignalChem); purchased SignalChem. Conditions: compounds listed under IC50 bins. The procedure, abridged:
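Full-length PIP4K2A (4 nM in the added mix, with 100 μM PI(5)P diC8) pre-incubated 15 min at RT with compounds (10-point, 3-fold series) in 20 mM MOPS pH 7.2, 25 mM MgCl2, 0.005% Tween 20. ATP added from a 60 μM solution, 1 h at RT; ADP-Glo luminescence, IC50 fitted from % inhibition versus DMSO.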

With `Cc1nc(Nc2cnc3c(c2)N2C(=O)CC[C@H]2CO3)ccc1-c1ccc(N2CCCC2=O)cc1` [Example 190, (S)-2-((6-methyl-5-(4-(2-oxopyrrolidin-1-yl)phenyl)pyridin-2-yl)amino)-6,6a,7,8-tetrahydro-9H-pyrido[2,3-b]pyrrolo[1,2-d][1,4]oxazin-9-one], the values for the IC50 at PIP4K2B, on PIP4K2A [1] and against PIP4K2A [2] were 10 to 100 nM, 10 to 100 nM and 1 to 10 nM, respectively.
Consider `O=C1CCCN1c1ccc(-c2ccc(Nc3cnc4c(c3)N3C(=O)CC[C@H]3CO4)nc2)c(F)c1` [Example 191, (S)-2-((5-(2-fluoro-4-(2-oxopyrrolidin-1-yl)phenyl)pyridin-2-yl)amino)-6,6a,7,8-tetrahydro-9H-pyrido[2,3-b]pyrrolo[1,2-d][1,4]oxazin-9-one], for which the figures for the IC50 at PIP4K2B, at PIP4K2A [1] and against PIP4K2A [2] were 10 to 100 nM, 10 to 100 nM and 1 to 10 nM, respectively.
Consider `Cc1cc(N2CCCC2=O)ccc1-c1ccc(Nc2cnc3c(c2)N2C(=O)CC[C@H]2CO3)nc1` [Example 192, (S)-2-((5-(2-methyl-4-(2-oxopyrrolidin-1-yl)phenyl)pyridin-2-yl)amino)-6,6a,7,8-tetrahydro-9H-pyrido[2,3-b]pyrrolo[1,2-d][1,4]oxazin-9-one], for which the IC50 at PIP4K2B, against PIP4K2A [1] and against PIP4K2A [2] was 10 to 100 nM in each case.
Regarding `COCc1nc(Nc2cnc3c(c2)N2C(=O)CC[C@H]2CO3)ncc1-c1ccc(N2CCCC2=O)cc1` [Example 197, (S)-2-((4-(methoxymethyl)-5-(4-(2-oxopyrrolidin-1-yl)phenyl)pyrimidin-2-yl)amino)-6,6a,7,8-tetrahydro-9H-pyrido[2,3-b]pyrrolo[1,2-d][1,4]oxazin-9-one], the IC50 on PIP4K2B, against PIP4K2A [1] and against PIP4K2A [2] was 1 to 10 nM in each case.
For the compound `CN(C)C(=O)c1ccc(-c2ccc(Nc3cncc(N4CCN(Cc5ccc(N)cc5)C4=O)c3)nc2)cc1` [Example 222, 4-(6-((5-(3-(4-aminobenzyl)-2-oxoimidazolidin-1-yl)pyridin-3-yl)amino)pyridin-3-yl)-N,N-dimethylbenzamide], the IC50 on PIP4K2B is 10 to 100 nM; on PIP4K2A [1] it was 1 to 10 nM; on PIP4K2A [2], at most 1 nM.
Consider `CN(C)C(=O)c1ccc(-c2ccc(Nc3cncc(N4CCN(Cc5cccc(N)c5)C4=O)c3)nc2)cc1` [Example 223, 4-(6-((5-(3-(3-aminobenzyl)-2-oxoimidazolidin-1-yl)pyridin-3-yl)amino)pyridin-3-yl)-N,N-dimethylbenzamide], for which the IC50 on PIP4K2B was 10 to 100 nM; at PIP4K2A [1], 1 to 10 nM; against PIP4K2A [2], at most 1 nM.
In the case of `CN(C)C(=O)c1ccc(-c2ccc(Nc3cncc(N4CCN(Cc5cccc(NC(=O)CCc6cccc(N)c6)c5)C4=O)c3)nc2)cc1` [Example 224, 4-(6-((5-(3-(3-(3-(3-aminophenyl)propanamido)benzyl)-2-oxoimidazolidin-1-yl)pyridin-3-yl)amino)pyridin-3-yl)-N,N-dimethylbenzamide], the values for the IC50 on PIP4K2B, at PIP4K2A [1] and against PIP4K2A [2] were 10 to 100 nM, 1 to 10 nM and 1 to 10 nM, respectively.
Regarding `CN(C)C/C=C/C(=O)Nc1cccc(CCC(=O)Nc2cccc(CN3CCN(c4cncc(Nc5ccc(-c6ccc(C(=O)N(C)C)cc6)cn5)c4)C3=O)c2)c1` [Example 225, (E)-4-(6-((5-(3-(3-(3-(3-(4-(dimethylamino)but-2-enamido)phenyl)propanamido)benzyl)-2-oxoimidazolidin-1-yl)pyridin-3-yl)amino)pyridin-3-yl)-N,N-dimethylbenzamide], the IC50 fell in the range of 10 to 100 nM at PIP4K2B, 10 to 100 nM against PIP4K2A [1] and 1 to 10 nM at PIP4K2A [2].
As for `CN(C)C/C=C/C(=O)NCC(=O)Nc1cccc(CN2CCN(c3cncc(Nc4ccc(-c5ccc(C(=O)N(C)C)cc5)cn4)c3)C2=O)c1` [Example 227, (E)-4-(6-((5-(3-(3-(2-(4-(dimethylamino)but-2-enamido)acetamido)benzyl)-2-oxoimidazolidin-1-yl)pyridin-3-yl)amino)pyridin-3-yl)-N,N-dimethylbenzamide], the IC50 was 10 to 100 nM at PIP4K2B, 1 to 10 nM against PIP4K2A [1] and at most 1 nM on PIP4K2A [2].
The like results for `CN(C)C(=O)c1ccc(-c2ccc(Nc3cncc(N4CCN(Cc5ccc(NC(=O)CN)cc5)C4=O)c3)nc2)cc1` [Example 228, 4-(6-((5-(3-(4-(2-aminoacetamido)benzyl)-2-oxoimidazolidin-1-yl)pyridin-3-yl)amino)pyridin-3-yl)-N,N-dimethylbenzamide] were, in that order, above 1000 nM, above 1000 nM and above 1000 nM.
The like results for `CN(C)C/C=C/C(=O)NCC(=O)Nc1ccc(CN2CCN(c3cncc(Nc4ccc(-c5ccc(C(=O)N(C)C)cc5)cn4)c3)C2=O)cc1` [Example 229, (E)-4-(6-((5-(3-(4-(2-(4-(dimethylamino)but-2-enamido)acetamido)benzyl)-2-oxoimidazolidin-1-yl)pyridin-3-yl)amino)pyridin-3-yl)-N,N-dimethylbenzamide] were, in that order, above 1000 nM, above 1000 nM and above 1000 nM.
The like results for `CN(C)C(=O)c1ccc(-c2ccc(Nc3cncc(N4CCN(Cc5ccc(NC(=O)CCc6cccc(N)c6)cc5)C4=O)c3)nc2)cc1` [Example 230, 4-(6-((5-(3-(4-(3-(3-aminophenyl)propanamido)benzyl)-2-oxoimidazolidin-1-yl)pyridin-3-yl)amino)pyridin-3-yl)-N,N-dimethylbenzamide] were, in that order, 10 to 100 nM, 1 to 10 nM and 1 to 10 nM.
For the compound `CN(C)C/C=C/C(=O)Nc1cccc(CCC(=O)Nc2ccc(CN3CCN(c4cncc(Nc5ccc(-c6ccc(C(=O)N(C)C)cc6)cn5)c4)C3=O)cc2)c1` [Example 231, (E)-4-(6-((5-(3-(4-(3-(3-(4-(dimethylamino)-but-2-enamido)phenyl)propanamido)benzyl)-2-oxoimidazolidin-1-yl)pyridin-3-yl)amino)pyridin-3-yl)-N,N-dimethylbenzamide], the IC50 at PIP4K2B is 10 to 100 nM; against PIP4K2A [1], 1 to 10 nM; against PIP4K2A [2], 1 to 10 nM.
As for `CN(C)C(=O)c1ccc(-c2ccc(Nc3cncc(NC(=O)c4cccc5[nH]cnc45)c3)nc2)cc1` [Example 232, N-(5-((5-(4-(dimethylcarbamoyl)phenyl)pyridin-2-yl)amino)pyridin-3-yl)-1H-benzo[d]imidazole-7-carboxamide], the IC50 at PIP4K2B fell in the range of 10 to 100 nM; against PIP4K2A [1], 10 to 100 nM; at PIP4K2A [2], 1 to 10 nM.
Regarding `O=C1CCCN1c1ccc(-c2ccc(Nc3cnc4c(c3)N(C(=O)C3(O)CC3)CCO4)nc2)cc1` [Example 233, 1-(4-(6-((1-(1-hydroxycyclopropane-1-carbonyl)-2,3-dihydro-1H-pyrido[2,3-b][1,4]oxazin-7-yl)amino)pyridin-3-yl)phenyl)pyrrolidin-2-one], the results for the IC50 at PIP4K2B, at PIP4K2A [1] and against PIP4K2A [2] were 10 to 100 nM, 1 to 10 nM and 1 to 10 nM, respectively.
Take `CC(O)C(=O)N1CCOc2ncc(Nc3ccc(-c4ccc(N5CCCC5=O)cc4)cn3)cc21` (stereo not drawn) [Example 234, 1-(4-(6-((1-(2-hydroxypropanoyl)-2,3-dihydro-1H-pyrido[2,3-b][1,4]oxazin-7-yl)amino)pyridin-3-yl)phenyl)pyrrolidin-2-one]: the figures for the IC50 on PIP4K2B, against PIP4K2A [1] and against PIP4K2A [2] were 10 to 100 nM, 1 to 10 nM and 1 to 10 nM, respectively.
For `O=C1CCCN1c1ccc(-c2ccc(Nc3cnc4c(c3)N(C(=O)CO)CCO4)nc2)cc1` [Example 235, 1-(4-(6-((1-(2-hydroxyacetyl)-2,3-dihydro-1H-pyrido[2,3-b][1,4]oxazin-7-yl)amino)pyridin-3-yl)phenyl)pyrrolidin-2-one], the IC50 lay in the range of 10 to 100 nM at PIP4K2B, 10 to 100 nM against PIP4K2A [1] and 1 to 10 nM against PIP4K2A [2].
